Reference: the NIST ThermoML archive (doi:10.1021/je034002l)

Assay: xn = mol fraction of the nth substance listed
Conditions: 101.3 kPa, Liquid

CCCCCCCl [1-chlorohexane] + CCCCCC
Conditions	mass density [kg/m3]	viscosity [mPa·s]
293.15 K, x1 = 0.1	683.01	0.3403
293.15 K, x1 = 0.15	694.01	0.3532
293.15 K, x1 = 0.2	706.37	0.3669
293.15 K, x1 = 0.3	728.21	0.3965
293.15 K, x1 = 0.5	771.87	0.4691
293.15 K, x1 = 0.7	815.39	0.5662
293.15 K, x1 = 0.9	856.91	0.6932
293.15 K, x1 = 1	878.52	0.7704
298.15 K, x1 = 0.1	678.51	0.3263
298.15 K, x1 = 0.15	689.61	0.3384
298.15 K, x1 = 0.2	701.84	0.352
298.15 K, x1 = 0.3	723.73	0.3794
298.15 K, x1 = 0.5	767.36	0.4464
298.15 K, x1 = 0.7	810.91	0.5367
298.15 K, x1 = 0.9	852.37	0.6495
298.15 K, x1 = 1	873.75	0.7173
303.15 K, x1 = 0.1	673.93	0.313
303.15 K, x1 = 0.15	685.15	0.3245
303.15 K, x1 = 0.2	697.27	0.3377
303.15 K, x1 = 0.3	719.21	0.3632
303.15 K, x1 = 0.5	762.82	0.4254
303.15 K, x1 = 0.7	806.39	0.5094
303.15 K, x1 = 0.9	847.8	0.6103
303.15 K, x1 = 1	868.98	0.6702
308.15 K, x1 = 0.1	669.37	0.2998
308.15 K, x1 = 0.15	680.63	0.3107
308.15 K, x1 = 0.2	692.67	0.3233
308.15 K, x1 = 0.3	714.64	0.3475
308.15 K, x1 = 0.5	758.26	0.4061
308.15 K, x1 = 0.7	801.83	0.4844
308.15 K, x1 = 0.9	843.21	0.5754
308.15 K, x1 = 1	864.21	0.6283
313.15 K, x1 = 0.1	664.73	0.2881
313.15 K, x1 = 0.15	676.04	0.2985
313.15 K, x1 = 0.2	688.03	0.3109
313.15 K, x1 = 0.3	710.03	0.3337
313.15 K, x1 = 0.5	753.66	0.3884
313.15 K, x1 = 0.7	797.24	0.4614
313.15 K, x1 = 0.9	838.59	0.5436
313.15 K, x1 = 1	859.44	0.591
318.15 K, x1 = 0.1	660.04	0.2765
318.15 K, x1 = 0.15	671.39	0.2865
318.15 K, x1 = 0.2	683.36	0.2984
318.15 K, x1 = 0.3	705.37	0.3201
318.15 K, x1 = 0.5	749.03	0.372
318.15 K, x1 = 0.7	792.61	0.4402
318.15 K, x1 = 0.9	833.95	0.5152
318.15 K, x1 = 1	854.67	0.558
323.15 K, x1 = 0.1	655.31	0.266
323.15 K, x1 = 0.15	666.68	0.2755
323.15 K, x1 = 0.2	678.65	0.2868
323.15 K, x1 = 0.3	700.66	0.3076
323.15 K, x1 = 0.5	744.37	0.3569
323.15 K, x1 = 0.7	787.95	0.4208
323.15 K, x1 = 0.9	829.29	0.4899
323.15 K, x1 = 1	849.9	0.5285
328.15 K, x1 = 0.1	650.53	0.256
328.15 K, x1 = 0.15	661.91	0.2652
328.15 K, x1 = 0.2	673.9	0.2759
328.15 K, x1 = 0.3	695.91	0.2959
328.15 K, x1 = 0.5	739.68	0.3428
328.15 K, x1 = 0.7	783.25	0.4027
328.15 K, x1 = 0.9	824.61	0.4666
328.15 K, x1 = 1	845.12	0.5019
333.15 K, x1 = 0.1	645.7	0.2468
333.15 K, x1 = 0.15	657.07	0.2556
333.15 K, x1 = 0.2	669.12	0.2658
333.15 K, x1 = 0.3	691.11	0.2849
333.15 K, x1 = 0.5	734.96	0.3297
333.15 K, x1 = 0.7	778.51	0.3862
333.15 K, x1 = 0.9	819.9	0.4455
333.15 K, x1 = 1	840.35	0.4778
